Experimental data published in ChEMBL document CHEMBL1128213, “1-Phenyl-3-(aminomethyl)pyrroles as potential antipsychotic agents. Synthesis and dopamine receptor binding” (J Med Chem, 1995).

Assays:
D(3) dopamine receptor = D(3) dopamine receptor (Chlorocebus aethiops, UniProt P52703)
Description: Displacement of [3H]-YM 09151 from african monkey Dopamine receptor D3

D(4) dopamine receptor = target: T1, D(4) dopamine receptor (Homo sapiens, UniProt P21917)
T1 sequence (P21917 whole entry): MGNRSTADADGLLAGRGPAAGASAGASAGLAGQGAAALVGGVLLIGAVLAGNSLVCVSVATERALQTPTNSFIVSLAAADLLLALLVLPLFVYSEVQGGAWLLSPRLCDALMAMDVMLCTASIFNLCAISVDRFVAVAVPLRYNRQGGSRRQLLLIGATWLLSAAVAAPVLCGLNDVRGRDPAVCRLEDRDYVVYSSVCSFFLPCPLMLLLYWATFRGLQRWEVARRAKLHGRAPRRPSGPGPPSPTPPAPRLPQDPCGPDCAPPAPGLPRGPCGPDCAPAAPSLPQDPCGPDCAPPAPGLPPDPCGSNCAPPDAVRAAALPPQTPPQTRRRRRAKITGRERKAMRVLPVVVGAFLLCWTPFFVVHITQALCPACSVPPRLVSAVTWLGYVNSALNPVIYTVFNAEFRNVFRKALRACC
Description: Displacement of [3H]-YM 09151 from human Dopamine receptor D4

D(2) dopamine receptor = D(2) dopamine receptor (Rattus norvegicus, UniProt P61169); assay: Binding affinity towards Dopamine receptor D2 of rat using [3H]spiperone
Sequence of D(2) dopamine receptor (P61169 whole entry): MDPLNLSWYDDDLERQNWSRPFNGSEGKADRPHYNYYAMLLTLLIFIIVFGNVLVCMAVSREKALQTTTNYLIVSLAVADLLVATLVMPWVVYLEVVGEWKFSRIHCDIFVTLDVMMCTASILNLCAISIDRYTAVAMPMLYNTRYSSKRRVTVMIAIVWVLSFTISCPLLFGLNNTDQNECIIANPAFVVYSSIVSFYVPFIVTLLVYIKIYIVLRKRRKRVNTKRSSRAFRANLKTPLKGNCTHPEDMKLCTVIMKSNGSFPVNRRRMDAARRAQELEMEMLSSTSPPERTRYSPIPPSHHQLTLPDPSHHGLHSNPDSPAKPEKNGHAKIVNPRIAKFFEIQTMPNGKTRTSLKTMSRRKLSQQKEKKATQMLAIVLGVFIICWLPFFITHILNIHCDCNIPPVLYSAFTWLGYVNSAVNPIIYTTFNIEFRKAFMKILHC

Sequence of D(3) dopamine receptor (P52703 whole entry): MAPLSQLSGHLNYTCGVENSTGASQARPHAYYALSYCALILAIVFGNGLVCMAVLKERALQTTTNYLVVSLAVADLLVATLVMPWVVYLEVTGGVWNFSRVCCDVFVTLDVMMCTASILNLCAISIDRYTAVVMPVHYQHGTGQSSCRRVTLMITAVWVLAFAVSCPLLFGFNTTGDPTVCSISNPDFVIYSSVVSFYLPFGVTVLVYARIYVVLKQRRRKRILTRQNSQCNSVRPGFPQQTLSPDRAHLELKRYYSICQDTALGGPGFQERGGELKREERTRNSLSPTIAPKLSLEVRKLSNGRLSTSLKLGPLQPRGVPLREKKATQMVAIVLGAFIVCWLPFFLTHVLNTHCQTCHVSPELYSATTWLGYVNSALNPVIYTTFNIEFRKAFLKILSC

Structure (SMILES) | Ki (D(3) dopamine receptor) [µM] | Ki (D(4) dopamine receptor) [µM] | Ki (D(2) dopamine receptor) [µM]
c1ccc(C2CCN(Cc3ccn(-c4ccccc4)c3)CC2)cc1 | 0.061 | 0.009 | 
COc1ccccc1N1CCN(Cc2ccc(-c3ccccc3)n2C)CC1 |  |  | 0.0008
O=c1[nH]c2ccccc2n1C1CCN(Cc2ccn(-c3ccccc3)c2)CC1 | 0.398 | 0.646 | 
C1=C(c2ccccc2)CCN(Cc2ccn(-c3ccccc3)c2)C1 |  | 0.004 | 
O=C1NCN(c2ccccc2)C12CCN(Cc1ccn(-c3ccccc3)c1)CC2 | 0.09 | 0.201 | 
CN1CCN(C2=Nc3cc(Cl)ccc3Nc3ccccc32)CC1 [CLOZAPINE] | 0.466 |  | 

Next, values leading:

Ki (D(3) dopamine receptor) [µM] | Ki (D(4) dopamine receptor) [µM] | Ki (D(2) dopamine receptor) [µM] | Structure (SMILES)
0.477 | 0.325 |  | OC1(c2ccc(Cl)cc2)CCN(Cc2ccn(-c3ccccc3)c2)CC1
 | 0.0013 |  | COc1ccccc1N1CCN(Cc2ccn(-c3ccccc3)c2)CC1
0.15 | 0.0016 |  | c1ccc(-n2ccc(CN3CCN(c4ccccn4)CC3)c2)cc1
0.049 | 0.004 |  | c1ccc(N2CCN(Cc3ccn(-c4ccccc4)c3)CC2)cc1
0.42 | 0.492 |  | OC1(c2cccc(C(F)(F)F)c2)CCN(Cc2ccn(-c3ccccc3)c2)CC1
